# Results from patent US8772318B2, “Methods and compositions related to targeting monoacylglycerol lipase” (The Scripps Research Institute, priority 2008, dated 2014).
# Entries after “also recorded” stand apart in the source; their conditions may differ.
# What was measured:
# [1] = test system: human cancer cell lines (C8161, SKOV3, 231MFP, MUM2C, OVCAR3); assay: Lipid measurements in cancer cells; format: cell-based; conditions: 4 hr
# Method: Pharmacological inhibition of MAGL in cancer cells. Pharmacological inhibition studies were conducted as described previously (Chiang et al., Chem. Biol. 13:1041-1050, 2006). Cancer cells were maintained in RPMI medium 1640 with 10% (v/v) fetal calf serum at 37° C. in a humidified atmosphere of 5% CO2/95% air. At 80% confluency, cells were trypsinized and counted using a hemocytometer, and 1×10^6 cells were plated in 6 cm dishes (subconfluent). […] After incubation for 4 hr, the cells were harvested and analyzed by ABPP or LC-MS.
# Lipid measurements in cancer cells. Lipid measurements were conducted similarly to protocols described previously (Chiang et al., 2006; supra). Cancer cells were grown in serum-free media for 4 hrs to minimize the contribution of serum-derived lipids to the cellular profiles. The cells (1×10^6 cells/6 cm dish, 80% confluency) were washed with twice with phosphate buffer saline (PBS), isolated by centrifugation at 1,400×g, and dounce-homogenized in 4 ml of a 2:1:1 mixture of chloroform:methanol:Tris buffer. Samples were homogenized in the presence of the following synthetic standards: C12:0 MAGE (10 nmol), C15:0 FFA (10 nmol). Organic and aqueous layers were separated by centrifugation at 2000×g for 5 min and the organic layer was collected. The aqueous layer was acidified (for metabolites such as LPA) by adding 5% formic acid, followed by the addition of 2 ml chloroform. The mixture was vortexed, and the organic layers were combined, dried down under N2 and dissolved in 100 μl chloroform, of which 30 μl was analyzed by LC-MS.
# LC-MS analysis was performed by using an Agilent 1100 LC-MSD SL instrument. […] Mobile phase A was composed of a 95:5 ratio of water:methanol, and mobile phase B consisted of 2-propanol, methanol, and water in a 60:35:5 ratio. Solvent modifiers such as 0.1% formic acid and 0.1% ammonium hydroxide were used to assist ion formation as well as to improve the LC resolution in both positive and negative ionization modes, respectively. The flow rate for each run started at 0.1 ml/min for 5 min, to alleviate backpressure associated with injecting chloroform. The gradient started at 0% B and increased linearly to 100% B over the course of 45 min with a flow rate of 0.4 ml/min, followed by an isocratic gradient of 100% B for 17 min at 0.5 ml/min before equilibrating for 8 min at 0% B with a flow rate of 0.5 ml/min. MS analysis was performed with an electrospray ionization (ESI) source. The capillary voltage was set to 3.0 kV, and the fragmentor voltage was set to 100 V. The drying gas temperature was 350° C., the drying gas flow rate was 10 L/min, and the nebulizer pressure was 35 psi.
# Lipidomic analysis was performed in both targeted and untargeted mode by LC-MS analysis. Standard lipid classes were quantitated by targeting using selected ion monitoring (SIM) (except for very high-abundance metabolites which were quantitated by untargeted analysis) and identities of metabolites were confirmed by coelution of metabolites with their respective standards and mass accuracy to within 10 ppm as determined with an accurate mass Agilent 6520 Accurate Mass QTOF-MS-MS. These lipids were quantified by measuring the area under the peak and were normalized to an internal standard (C12:0 MAGE in positive mode or C15:0 FFA in negative mode). […]
# [2] = test system: human cancer cell lines (C8161, SKOV3, 231MFP, MUM2C, OVCAR3); assay: Cell migration assay (Transwell); format: cell-based; conditions: for impaired migration of shMAGL cancer cells: 100 nM; for migration of cancer cells: 100 μM, 4 hr preincubation and coincubation with migration; for migration of MUM2C and OVCAR3 cells / migratory activity of shMAGL or JZL184-treated MAGL-OE cancer cells: 20 μM
# Method: Cell migration, cell survival, and invasion studies. Migration assays were performed in Transwell chambers (Corning) with 8 μm pore-sized membranes coated with 10 μg/ml collagen for 4 h at 37° C. A total of 24 hr before the start of the migration assay, cancer cell lines were plated at a concentration of 1×10^6 cells per 6 cm dish. At the start of the migration assay, cells were harvested by washing two times with PBS and were then serum starved in serum-free media for 4 hr. Inhibitor, lipid or vehicle (0.1% DMSO) were preincubated with the cells during this 4 h time. Serum-starved cells were trypsinized, spun at 1400×g for 3 min, resuspended, and counted. 50,000 cells were seeded in the upper chamber of the transwells in 200 μl serum-free media (containing inhibitor, lipid or vehicle). Inhibitor, lipid or vehicle was also added to the lower chamber, and cells were allowed to migrate for 5 h (for C8161 and 231MFP cells) or 20 hr (SKOV3, MUM2C and OVCAR3 cells). The filters were then fixed and stained with Diff-Quik (Dade Behring). Cells that had not migrated through the chamber were removed with a cotton ball. The cells that migrated were counted at a magnification of 400×, and 4 fields were independently counted from each migration chamber. An average of cells in 4 fields for one migration chamber represents n=1.
# MAGL = target: T1, MAGL (Mus musculus, UniProt O35678); assay: Competitive ABPP, mouse brain membrane proteome; format: biochemical
# T1 construct: from tissue; host or cells: mouse brain membrane fraction (C57Bl/6 mice for the in vivo studies)
# T1 sequence (O35678 1-303): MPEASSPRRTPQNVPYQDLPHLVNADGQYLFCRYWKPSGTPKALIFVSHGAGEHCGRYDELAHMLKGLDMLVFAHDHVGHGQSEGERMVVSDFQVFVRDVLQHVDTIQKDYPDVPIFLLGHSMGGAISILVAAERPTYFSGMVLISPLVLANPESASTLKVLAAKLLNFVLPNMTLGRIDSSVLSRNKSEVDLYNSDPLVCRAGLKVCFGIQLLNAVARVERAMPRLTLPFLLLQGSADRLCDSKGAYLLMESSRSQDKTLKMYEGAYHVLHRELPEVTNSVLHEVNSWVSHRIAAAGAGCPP
# From the text: First, serine hydrolases are susceptible to covalent inactivation by specific chemical groups that show little or no cross-reactivity with other enzyme classes. […] Second, the functional state of serine hydrolases can be collectively profiled in native biological systems using activity-based protein profiling (ABPP) methods (Cravat et al., Annu Rev Biochem 77:383-414, 2008). ABPP of serine hydrolases uses reporter-tagged fluorophosphonates (FPs), which serve as general activity-based probes for this large and diverse enzyme class (Liu et al., Proc. Natl. Acad. Sci. U.S.A. 96:14694-9, 1999). When performed in a competitive mode, ABPP can serve as a powerful screen to evaluate the potency and selectivity of small-molecule enzyme inhibitors directly in complex proteomes. The screen can be performed as described in the art, e.g., Liu et al., Proc. Natl. Acad. Sci. U.S.A. 96:14694-9, 1999; Li et al., J. Am. Chem. Soc. 129:9594-5, 2007; Leung et al., Nat. Biotech. 21:687-91, 2003; and Greenbaum et al., Mol. Cell. Proteomics 1:60-68, 2002.
# Competitive activity-based protein profiling (ABPP) experiments. In vitro inhibitor selectivity was examined using a competitive ABPP method as described in the art (e.g., Li et al., J. Am. Chem. Soc. 129:9594-5, 2007; and Leung et al., Nat. Biotech. 21:687-91, 2003). Briefly, mouse brain membrane proteomes, prepared as described herein, were diluted to 1 mg/ml in PBS and pre-incubated with varying concentrations of inhibitors (1 nM to 10 μM) for 30 min at 37° C. prior to the addition of a FP-rhodamine at a final concentration of 2 μM in a 50 μl of total reaction volume. After 30 min at room temperature, the reactions were quenched with 4×SDS-PAGE loading buffer, boiled for 5 min at 90° C., subjected to SDS-PAGE, and visualized in-gel using a flatbed fluorescence scanner.
# Every 10 min, 50 ul of the reaction was removed and treated with FP-rhodamine (2 μM) for 2 min, quenched with 4×SDS-PAGE loading buffer, and boiled for 5 min at 90° C. The combined reactions were subjected to SDS-PAGE and visualized in-gel using a flatbed fluorescence scanner. The percentage activity remaining was determined by measuring the integrated optical density corresponding to the MAGL or FAAH bands and the results were fit to an exponential curve to determine the pseudo-first order rate constants.
compound,measurement,setting,value
COc1ccc(C(=O)c2c(C)n(CCN3CCOCC3)c3cc(I)ccc23)cc1 [AM630],FFA levels in shControl and shMAGL cancer cells,[1]; antagonist 1 μM,unchanged
same,migratory defect in shMAGL cancer cells,"[2]; antagonist 1 μM, 4 hr",not rescued
COc1ccc(C(O)(c2ccc(OC)cc2)C2CCN(C(=O)Oc3ccc([N+](=O)[O-])cc3)CC2)cc1 [JZL175],selectivity for MAGL over FAAH and ABHD6 (competitive ABPP),MAGL,selectivity for MAGL over both FAAH and ABHD6; also recorded: no or greatly reduced inhibitory activity on FAAH as well as ABHD6
CCCCCCCCCCCCCCCC(=O)OC[C@@H](O)COP(=O)(O)O [LPA],impaired migration of shMAGL cancer cells,[2]; 4 hr,rescued the impaired migration
"CCCCC[C@H](O)/C=C/[C@H]1[C@H](O)CC(=O)[C@@H]1C/C=C\CCCC(=O)O [PGE2, prostaglandin E2]",impaired migration of shMAGL cancer cells,[2]; 4 hr,rescued the impaired migration
CCOC(=O)[C@@]1(CCCCCCOc2ccc(Cl)cc2)CO1 [etomoxir],FFA levels in cancer cells,"[1]; 100 μM, exception C20:4 FFA, elevated in C8161 and SKOV3 cells",did not alter FFA levels
same,migration of cancer cells,[2],did not affect migration
CCCCCCCCCCCCCCCC(=O)O [palmitic acid],migration of MUM2C and OVCAR3 cells,[2]; 4 h,increases the migration
same,migratory activity of shMAGL or JZL184-treated MAGL-OE cancer cells,[2]; 4 h,fully restored their migratory activity
CCCCCCCCCCCCCCCCCC(=O)O [stearic acid],migration of MUM2C and OVCAR3 cells,[2]; 4 h,increases the migration
same,migratory activity of shMAGL or JZL184-treated MAGL-OE cancer cells,[2]; 4 h,fully restored their migratory activity
COc1ccc(CN2CCNCC2)c(OC)c1OC [trimetazidine],migration of cancer cells,[2],did not affect migration
pertussis toxin,enhanced migratory activity of MAGL-OE cancer cells,"[2]; 100 ng/ml, 4 h",completely blocked
